In brackets after ≈: the same amount, converted by molar mass.
Tested on: M. tuberculosis
Test: microbe, parasite or virus in culture
Type: cell-based
Conditions: Mycobacterium tuberculosis, 120 h; read-out: QUM (MIC80)

Row | SMILES | MIC80 [µM]
1 | CCc1nc2ccc(Cl)cn2c1C(=O)NCc1ccc(N2CCC(c3ccc(C(F)(F)F)cc3)CC2)cc1 [Compound 158] | < 1
2 | CCc1nc2ccc(Br)cn2c1C(=O)NCc1ccc(N2CCC(c3ccc(Cl)cc3)CC2)cc1 [Compound 159] | < 1
3 | CCc1nc2c(Cl)cccn2c1C(=O)NCc1ccc(N2CCN(c3ccc(C)cc3)CC2)cc1 [Compound 160] | < 1
4 | CCc1nc2c(F)cccn2c1C(=O)NCc1ccc(N2CCN(c3ccc(C(F)(F)F)cc3)CC2)cc1 [Compound 161] | < 1
5 | CCc1nc2ccc(F)cn2c1C(=O)NCc1ccc(N2CCC(c3ccc(Cl)cc3)CC2)cc1 [Compound 162] | < 1
6 | CCc1nc2cc(C)ccn2c1C(=O)NCc1ccc(N2CCC(c3ccc(F)cc3)CC2)cc1 [Compound 163] | < 1
7 | CCc1nc2cc(F)ccn2c1C(=O)NCc1ccc(N2CCC(c3ccc(C(F)(F)F)cc3)CC2)cc1 [Compound 164] | < 1
8 | CCc1nc2ccc(F)cn2c1C(=O)NCc1ccc(N2CCC(c3ccccc3)CC2)cc1 [Compound 165] | < 1
9 | CCc1nc2cc(F)ccn2c1C(=O)NCc1ccc(N2CCC(c3ccccc3)CC2)cc1 [Compound 166] | < 1
10 | CCc1nc2c(F)cccn2c1C(=O)NCc1ccc(N2CCC(c3ccccc3)CC2)cc1 [Compound 167] | < 1
11 | CCc1nc2c(Br)cccn2c1C(=O)NCc1ccc(N2CCC(c3ccccc3)CC2)cc1 [Compound 168] | 1 to 20 (≈ 0.517 to 10.3 µg/mL)
12 | CCc1nc2ccc(C(F)(F)F)cn2c1C(=O)NCc1ccc(N2CCC(c3ccc(C)cc3)CC2)cc1 [Compound 169] | < 1
13 | CCc1nc2ccccn2c1C(=O)NCc1ccc(N2CCC(c3ccccc3)CC2)cc1 [Compound 170] | < 1
14 | CCc1nc2ccc(OC)cn2c1C(=O)NCc1ccc(N2CCC(c3ccc(Cl)cc3)CC2)cc1 [Compound 172] | < 1
15 | CCc1nc2c(C)cccn2c1C(=O)NCc1ccc(N2CCC(c3ccc(Cl)cc3)CC2)cc1 [Compound 173] | < 1
16 | CCc1nc2ccc(C)cn2c1C(=O)NCc1ccc(N2CCC(c3ccc(OC(F)(F)F)cc3)CC2)cc1 [Compound 174] | < 1
17 | CCc1nc2c(F)cccn2c1C(=O)NCc1ccc(N2CCC(c3ccc(Cl)cc3)CC2)cc1 [Compound 176] | < 1
18 | CCc1nc2c(OC)cccn2c1C(=O)NCc1ccc(N2CCC(c3ccccc3)CC2)cc1 [Compound 177] | < 1
19 | CCc1nc2ccc(C(F)(F)F)cn2c1C(=O)NCc1ccc(N2CCC(c3ccccc3)CC2)cc1 [Compound 178] | < 1
20 | CCc1nc2ccc(OC)cn2c1C(=O)NCc1ccc(N2CCC(c3ccc(F)cc3)CC2)cc1 [Compound 179] | < 1
21 | CCc1nc2ccccn2c1C(=O)NCc1ccc(N2CCC(c3ccc(OC)cc3)CC2)cc1 [Compound 180] | < 1
22 | CCc1nc2c(C)cccn2c1C(=O)NCc1ccc(N2CCC(c3ccc(OC(F)(F)F)cc3)CC2)cc1 [Compound 181] | < 1
23 | CCc1nc2ccc(OC)cn2c1C(=O)NCc1ccc(N2CCC(c3ccc(OC(F)(F)F)cc3)CC2)cc1 [Compound 182] | < 1
24 | CCc1nc2c(Cl)cccn2c1C(=O)NCc1ccc(N2CCC(c3ccc(F)cc3)CC2)cc1 [Compound 183] | < 1
25 | CCc1nc2cc(OC)ccn2c1C(=O)NCc1ccc(N2CCC(c3ccc(OC(F)(F)F)cc3)CC2)cc1 [Compound 184] | < 1

Row | SMILES | MIC80 [µM]
26 | CCc1nc2c(Br)cccn2c1C(=O)NCc1ccc(N2CCC(c3ccc(OC(F)(F)F)cc3)CC2)cc1 [Compound 185] | 1 to 20 (≈ 0.601 to 12 µg/mL)
27 | CCc1nc2cc(C(F)(F)F)ccn2c1C(=O)NCc1ccc(N2CCC(c3ccc(Cl)cc3)CC2)cc1 [Compound 186] | < 1
28 | CCc1nc2ccc(Br)cn2c1C(=O)NCc1ccc(N2CCC(c3ccc(OC(F)(F)F)cc3)CC2)cc1 [Compound 187] | < 1
29 | CCc1nc2ccc(C(F)(F)F)cn2c1C(=O)NCc1ccc(N2CCN(c3ccc(OC(F)(F)F)cc3)CC2)cc1 [Compound 188] | < 1
30 | CCc1nc2c(Br)cccn2c1C(=O)NCc1ccc(N2CCC(c3ccc(F)cc3)CC2)cc1 [Compound 189] | 1 to 20 (≈ 0.535 to 10.7 µg/mL)
31 | CCc1nc2c(Cl)cccn2c1C(=O)NCc1ccc(N2CCC(c3ccccc3)CC2)cc1 [Compound 190] | < 1
32 | CCc1nc2cc(Br)ccn2c1C(=O)NCc1ccc(N2CCC(c3ccc(OC(F)(F)F)cc3)CC2)cc1 [Compound 191] | < 1
33 | CCc1nc2cc(Br)ccn2c1C(=O)NCc1ccc(N2CCN(c3ccc(OC(F)(F)F)cc3)CC2)cc1 [Compound 192] | < 1
34 | CCc1nc2c(F)cccn2c1C(=O)NCc1ccc(N2CCN(c3ccc(OC(F)(F)F)cc3)CC2)cc1 [Compound 193] | < 1
35 | CCc1nc2cc(Cl)ccn2c1C(=O)NCc1ccc(N2CCN(c3ccc(Cl)cc3)CC2)cc1 [Compound 194] | < 1
36 | CCc1nc2cc(OC)ccn2c1C(=O)NCc1ccc(N2CCC(c3ccc(C(F)(F)F)cc3)CC2)cc1 [Compound 195] | < 1
37 | CCc1nc2ccc(Br)cn2c1C(=O)NCc1ccc(N2CCN(c3ccc(OC(F)(F)F)cc3)CC2)cc1 [Compound 197] | < 1
38 | CCc1nc2c(C(F)(F)F)cccn2c1C(=O)NCc1ccc(N2CCN(c3ccc(F)cc3)CC2)cc1 [Compound 198] | 1 to 20 (≈ 0.526 to 10.5 µg/mL)
39 | CCc1nc2c(Br)cccn2c1C(=O)NCc1ccc(N2CCN(c3ccc(Cl)cc3)CC2)cc1 [Compound 199] | < 1
40 | CCc1nc2c(OC)cccn2c1C(=O)NCc1ccc(N2CCN(c3ccc(OC(F)(F)F)cc3)CC2)cc1 [Compound 200] | 1 to 20 (≈ 0.554 to 11.1 µg/mL)
41 | CCc1nc2ccc(Br)cn2c1C(=O)NCc1ccc(N2CCN(c3ccc(Cl)cc3)CC2)cc1 [Compound 201] | < 1
42 | CCc1nc2c(C(F)(F)F)cccn2c1C(=O)NCc1ccc(N2CCN(c3ccc(OC(F)(F)F)cc3)CC2)cc1 [Compound 202] | 1 to 20 (≈ 0.592 to 11.8 µg/mL)
43 | CCc1nc2cc(C(F)(F)F)ccn2c1C(=O)NCc1ccc(N2CCN(c3ccc(OC(F)(F)F)cc3)CC2)cc1 [Compound 203] | < 1
44 | CCc1nc2cc(Cl)ccn2c1C(=O)NCc1ccc(N2CCN(c3ccc(C(F)(F)F)cc3)CC2)cc1 [Compound 204] | < 1
45 | CCc1nc2cc(Cl)ccn2c1C(=O)NCc1ccc(N2CCC(c3ccc(OC)cc3)CC2)cc1 [Compound 205] | < 1
46 | CCc1nc2cc(C(F)(F)F)ccn2c1C(=O)NCc1ccc(N2CCN(c3ccc(C(F)(F)F)cc3)CC2)cc1 [Compound 206] | < 1
47 | CCc1nc2cc(Br)ccn2c1C(=O)NCc1ccc(N2CCN(c3ccc(C)cc3)CC2)cc1 [Compound 207] | < 1
48 | CCc1nc2cc(Br)ccn2c1C(=O)NCc1ccc(N2CCN(c3ccc(OC)cc3)CC2)cc1 [Compound 208] | < 1
49 | CCc1nc2c(C(F)(F)F)cccn2c1C(=O)NCc1ccc(N2CCN(c3ccc(Cl)cc3)CC2)cc1 [Compound 209] | 1 to 20 (≈ 0.542 to 10.8 µg/mL)
50 | CCc1nc2ccc(OC)cn2c1C(=O)NCc1ccc(N2CCN(c3ccc(C(F)(F)F)cc3)CC2)cc1 [Compound 210] | < 1

Row | SMILES | MIC80 [µM]
51 | CCc1nc2cc(C(F)(F)F)ccn2c1C(=O)NCc1ccc(N2CCN(c3ccc(Cl)cc3)CC2)cc1 [Compound 211] | < 1
52 | CCc1nc2c(OC)cccn2c1C(=O)NCc1ccc(N2CCC(c3ccc(Cl)cc3)CC2)cc1 [Compound 212] | 1 to 20 (≈ 0.503 to 10.1 µg/mL)
53 | CCc1nc2c(Br)cccn2c1C(=O)NCc1ccc(N2CCC(c3ccc(Cl)cc3)CC2)cc1 [Compound 213] | < 1
54 | CCc1nc2cc(Br)ccn2c1C(=O)NCc1ccc(N2CCN(c3ccc(C(F)(F)F)cc3)CC2)cc1 [Compound 214] | < 1
55 | CCc1nc2c(OC)cccn2c1C(=O)NCc1ccc(N2CCC(c3ccc(C)cc3)CC2)cc1 [Compound 215] | 1 to 20 (≈ 0.483 to 9.65 µg/mL)
56 | CCc1nc2ccc(C)cn2c1C(=O)NCc1ccc(N2CCC(c3ccccc3)CC2)cc1 [Compound 216] | < 1
57 | CCc1nc2c(C(F)(F)F)cccn2c1C(=O)NCc1ccc(N2CCN(c3ccc(C(F)(F)F)cc3)CC2)cc1 [Compound 217] | 1 to 20 (≈ 0.576 to 11.5 µg/mL)
58 | CCc1nc2c(Br)cccn2c1C(=O)NCc1ccc(N2CCN(c3ccc(C(F)(F)F)cc3)CC2)cc1 [Compound 218] | < 1
59 | CCc1nc2cc(Br)ccn2c1C(=O)NCc1ccc(N2CCC(c3ccc(C)cc3)CC2)cc1 [Compound 219] | < 1
60 | CCc1nc2cc(OC)ccn2c1C(=O)NCc1ccc(N2CCN(c3ccc(Cl)cc3)CC2)cc1 [Compound 220] | < 1
61 | CCc1nc2cc(Cl)ccn2c1C(=O)NCc1ccc(N2CCC(c3ccc(C)cc3)CC2)cc1 [Compound 221] | < 1
62 | CCc1nc2ccc(C)cn2c1C(=O)NCc1ccc(N2CCC(c3ccc(OC)cc3)CC2)cc1 [Compound 222] | < 1
63 | CCc1nc2ccc(C(F)(F)F)cn2c1C(=O)NCc1ccc(N2CCC(c3ccc(OC(F)(F)F)cc3)CC2)cc1 [Compound 223] | < 1
64 | CCc1nc2c(Cl)cccn2c1C(=O)NCc1ccc(N2CCC(c3ccc(OC(F)(F)F)cc3)CC2)cc1 [Compound 224] | < 1
65 | CCc1nc2c(C)cccn2c1C(=O)NCc1ccc(N2CCC(c3ccc(F)cc3)CC2)cc1 [Compound 225] | < 1
66 | CCc1nc2ccc(C(F)(F)F)cn2c1C(=O)NCc1ccc(N2CCC(c3ccc(Cl)cc3)CC2)cc1 [Compound 226] | < 1
67 | CCc1nc2ccc(C(F)(F)F)cn2c1C(=O)NCc1ccc(N2CCC(c3ccc(F)cc3)CC2)cc1 [Compound 227] | < 1
68 | CCc1nc2cc(C(F)(F)F)ccn2c1C(=O)NCc1ccc(N2CCC(c3ccc(OC(F)(F)F)cc3)CC2)cc1 [Compound 228] | < 1
69 | CCc1nc2cc(F)ccn2c1C(=O)NCc1ccc(N2CCN(c3ccc(C(F)(F)F)cc3)CC2)cc1 [Compound 229] | < 1
70 | CCc1nc2ccccn2c1C(=O)NCc1ccc(N2CCC(c3ccc(C(F)(F)F)cc3)CC2)cc1 [Compound 230] | < 1
71 | CCc1nc2cc(C)ccn2c1C(=O)NCc1ccc(N2CCC(c3ccc(C)cc3)CC2)cc1 [Compound 231] | < 1
72 | CCc1nc2ccc(Cl)cn2c1C(=O)NCc1ccc(N2CCC(NC(=O)Cc3ccc(F)cc3)CC2)cc1 [Compound 232] | > 20
73 | CCc1nc2ccc(Cl)cn2c1C(=O)NCc1ccc(N2CCC(OCc3ccccc3)CC2)cc1 [Compound 233] | < 1
74 | CCc1nc2ccc(Cl)cn2c1C(=O)NCc1ccc(N2CCC(NC(=O)c3ccc(F)cc3)CC2)cc1 [Compound 234] | > 20

Reference: patent US20160185774A1, “Anti-Infective Compounds” (priority 2013, published 2016)
